US20210323914A1, “IONIZABLE CATIONIC LIPID FOR RNA DELIVERY” (Arcturus Therapeutics, Inc., priority 2017, published 2021)
Values joined by “and” are separate entries in the source; they are usually repeats but may differ in a detail not shown here. Equal entries are not always repeated.

Test system: epo protein
Experiment: In vivo epo protein expression after delivery of lipid encapsulated mouse epo mRNA (epo ELISA)
Parameters: species or system Balb/c mice
Details: at 0.1 mg/kg, intravenous, 6 hours, mice
Description: Epo expression following delivery of mRNA using lipid nanoparticles comprising the lipids described herein was measured.
Female Balb/c mice (6-8 weeks old) were used for evaluation of epo protein expression in vivo following delivery of lipid encapsulated mouse epo mRNA. All formulations were administered intravenously via tail vein injection at a dose of 0.03 and 0.1 mg/kg at a dosing volume of 5 mL/kg. Terminal blood collection was performed via cardiac puncture under 2% isoflurane at 6 hours after Formulation injections. Blood was collected into 0.109 M citrate buffer tube and processed by centrifugation at 5000 rpm for 10 minutes. Serum was collected and epo protein levels were analyzed by epo ELISA assay (R&D systems). A standard curve was constructed using samples from PBS-injected mice and relative […] expression was determined by comparing treated groups to untreated PBS control.

| SMILES | epo expression compared with ATX-002 (FIG. 19) |
| --- | --- |
| CCCCCC/C=C\COC(=O)CCCN(CCCC(=O)OC(CCCCCCC)CCCCCCCC)C(=O)SCCN(C)C (stereo not shown) [ATX-0057] | substantially higher amounts |

Test system: mouse epo mRNA
Experiment: In vivo EPO mRNA stability after injection of lipid encapsulated mouse epo mRNA
Parameters: species or system Balb/c mice
Details: 0.03 and 0.1 mg/kg intravenous, 6 hours after injection, mice
Description: Levels of mRNA in plasma were measured and compared following injection of nanoparticles comprising different cationic lipids. Female Balb/c mice (6-8 week old) were used for evaluation of plasma erythropoietin (epo) levels in vivo following injection of lipid encapsulated mouse epo mRNA. All Formulations were administered intravenously via tail vein injection at a dose of 0.03 and 0.1 mg/kg at a dosing volume of 5 ml/kg. Terminal blood collection was performed via cardiac puncture under 2% isoflurane at 6 hours after Formulation injections. Blood was collected into 0.109 M citrate buffer tube and processed by centrifugation at 5000 rpm for 10 minutes. Serum was collected and epo mRNA levels were analyzed. Results are shown at FIG. 17.

| SMILES | epo mRNA levels in serum compared with ATX-0002 (FIG. 17) |
| --- | --- |
| CCCCCC/C=C\COC(=O)CCCN(CCCC(=O)OC(CCCCCCC)CCCCCCCC)C(=O)SCCN(C)C (stereo not shown) [ATX-0057] | substantial improvement over ATX-0002 |
| CCCCCC/C=C\COC(=O)CCCN(CCCC(=O)OC(CCCCCCC)CCCCCCC)C(=O)SCCN(C)C [ATX-0081] | substantial improvement over ATX-0002 |
| CCCCCC/C=C\COC(=O)CCCCCN(CCC(=O)OC(CCCCCCC)CCCCCCC)C(=O)SCCN(C)C [ATX-0082] | substantial improvement over ATX-0002 |
| CCCCCC/C=C\COC(=O)CCCCCN(CCCC(=O)OC(CCCCCCC)CCCCCCC)C(=O)SCCN(C)C [ATX-0083] | substantial improvement over ATX-0002 |
| CCCCCC/C=C\COC(=O)CCCCCN(CCCCCC(=O)OC(CCCCCC)CCCCCC)C(=O)SCCN(C)C [ATX-0084] | substantial improvement over ATX-0002 |
| CCCCCC/C=C\COC(=O)CCCN(CCCC(=O)OC(CCCCCC)CCCCCC)C(=O)SCCN(C)C [ATX-0086] | substantial improvement over ATX-0002 |
| CCCCCC/C=C\COC(=O)CCCN(CCCC(=O)OC(CCCCCCCC)CCCCCCCC)C(=O)SCCN(C)C [ATX-0087] | substantial improvement over ATX-0002 |

Test system: not listed separately
Experiment: Measured pKa of cationic lipids in LNP or micellar formulations by TNS fluorescence
Assay type: physicochemical
Details: change on shortening the ester, vs ATX-0002
Description: pKa of cationic lipids in LNP or micellar Formulations were measured by the procedure of Jayaraman, 2012, Angew. Chem. Int. Ed., 51:8529-33, hereby incorporated by reference. Lipid micelles or LNPs are diluted to 1 mM total lipids in universal buffer with a pH range between 3 and 12 in presence of 0.06 mg/mL 6-(p-toluidino)-2-naphthalenesulfonic acid sodium salt (TNS) reagent (Sigma Aldrich), a pH sensitive fluorescence probe. The anionic TNS molecule fluoresces when associated with the surface of positively charged membranes but is not fluorescent when free in solution, allowing measurement of pKa. The TNS signal is measured on a spectral plate reader. The TNS signal is plotted as function of the pH and analyzed using a non-linear (Boltzman) to determine the pKa.
Reagents used in the assay include • Hepes free acid, CAS: 7365-45-9 (VWR, 0511-1KG or equivalent) • MES, HPLC grade: (Sigma 105228-100G or equivalent) • Ammonium acetate, HPLC grade: (Sigma 90335-100 mL or equivalent) • Sodium chloride, HPLC grade (VWR EM-MX0475-1 or equivalent) • TNS (Sigma-Aldrich T9792-250 mg or equivalent) • Hydrochloric acid • DMSO • DPBS without calcium and magnesium (GE, SH30028.02 or equivalent) • H2O, HPLC grade (OmniSolv, WX0004-1 or equivalent)
To prepare a stock solution of Universal Buffer (UB) in a polystyrene sterile storage bottle, prepare 1 L using the following table.
Reagents are sterile filtered through a 0.2 μm filter. Preparation of UB solution includes adding 5 mL of 1 M HCl to a 350 mL stock solution.
To prepare a pH ladder, centrifuge tubes (50 mL) with 20 mL UB buffer are used. (pH ˜3) and differing amounts of 2 N NaOH. Stock solutions of TNS at 1 mg/mL in DMSO. 60 μL of TNS at 1 mg/mL is added to 940 μL water to reach a working solution concentration of 0.06 mg/mL. Five test samples, 1 mL of LNP sample in PBS at 1 mM total lipid, and 1 reference sample are analyzed per plate. Samples at different pH values are prepared in wells in which 25 μL of 0.06 mg/mL TNS is added. 15 μL of test samples is added per well. The microplate is incubated for 15 minutes at room temperature in the dark. TNS template can be used to format data from the plate reader. Perform non-linear (Boltzman) regression analysis of the samples in Origin Pro 8 or equivalent software.

| SMILES | Δ measured pKa vs ATX-0002 |
| --- | --- |
| CCCCCC/C=C\COC(=O)CCCN(CCCC(=O)OC(CCCCCCC)CCCCCCCC)C(=O)SCCN(C)C (stereo not shown) [ATX-0057] | no impact |

Same assay, conditions: measured in the Formulation milieu, TNS fluorescence, 1 mM total lipids

| SMILES | pKa | (pKa) measured pKa |
| --- | --- | --- |
| CCCCCC/C=C\COC(=O)CCCN(CCCC(=O)OC(CCCCCCC)CCCCCCCC)C(=O)SCCN(C)C (stereo not shown) [ATX-0057] | 5.7 |  |
| CCCCCC/C=C\COC(=O)CCCN(CCCC(=O)OC(CCCCCCC)CCCCCCC)C(=O)SCCN(C)C [ATX-0081] | 6.04 |  |
| CCCCCC/C=C\COC(=O)CCCCCN(CCCC(=O)OC(CCCCCCC)CCCCCCC)C(=O)SCCN(C)C [ATX-0083] | 5.98 |  |
| CCCCCC/C=C\COC(=O)CCCCCN(CCCCCC(=O)OC(CCCCCC)CCCCCC)C(=O)SCCN(C)C [ATX-0084] | 6.11 |  |
| CCCCCC/C=C\COC(=O)CCCN(CCCC(=O)OC(CCCCCC)CCCCCC)C(=O)SCCN(C)C [ATX-0086] | 6.05 |  |
| CCCCCC/C=C\COC(=O)CCCCCCCN(CCCCCCCC(=O)OC(CCCCCC)CCCCCC)C(=O)SCCN(C)C [ATX-0093] | 5.79 |  |
| CCCCCC/C=C\COC(=O)CCCCCCCN(CCCCCCCC(=O)OC(CCCCCCCC)CCCCCCCC)C(=O)SCCN(C)C [ATX-0096] | 5.59 |  |
| CCCCCC/C=C\COC(=O)CCCCCCCN(CCCCCCCC(=O)OC(CCCCCCC)CCCCCCC)C(=O)SCCN(C)C [ATX-0097] | 5.89 |  |
| CCCCCCCC(CCCCCCC)OC(=O)CN(CC(=O)OC(CCCCCCC)CCCCCCC)C(=O)SCCCN(CC)CC [ATX-0134] | 5.62 |  |
| CCCCCC(CCCCC)OC(=O)CN(CC(=O)OC(CCCCC)CCCCC)C(=O)SCCCN(C)C [drawing 51] | 6.28 | 6.17 |
| CCCCCC(CCCCC)OC(=O)CN(CC(=O)OC(CCCCC)CCCCC)C(=O)SCCCN(C)C [drawing 52] |  | 6.28 and 6.17 |
| CCCCCC/C=C\COC(=O)CCCN(CCCC(=O)OC(CCCCCCCC)CCCCCCCC)C(=O)SCCN(C)C [drawing 76] | 6.06 |  |
| CCCCCC/C=C\COC(=O)CCCCCN(CCC(=O)OC(CCCCCCC)CCCCCCC)C(=O)SCCN(C)C [drawing 82] | 5.77 |  |

Test system: Factor VII
Experiment: In vivo mouse Factor VII siRNA knockdown with lipid nanoparticles
Parameters: species or system C57BL/6 mice
Details: both at 0.03 and 0.1 mg/kg, intravenous, 48 hours, mice
From the text: The first pair of numbers denotes the number of carbons in the ester, including the carbonyl, for L1 and L2; the pair of numbers in the parenthesis denotes the number of carbons in each branch of the branched alkyl, R1 or if R2 is also branched, R1/R2 (an asterisk denotes a double bond); the number of carbons in R3 is given; and the last line denotes the substitution for R4 and R5. The ATX number is given for reference herein. Calculated Log D values (c-Log D) and calculated pKa (c-pKa) values are given, as well as measured pKa in parenthesis (measured in the Formulation milieu). The c-Log D and c-pKa values are generated by ACD Labs Structure Designer v12.0. Bioactivity is percentage in vivo Factor VII knockdown at a dose of 0.03 mg/kg, unless otherwise designated.
Using a liver-directed in vivo screen of the liposome libraries, a series of compounds were tested that facilitate high levels of siRNA mediated gene silencing in hepatocytes, the cells comprising the liver parenchyma. Factor VII, a blood-clotting factor, is a suitable target gene for assaying functional siRNA delivery to liver. Because this factor is produced specifically in hepatocytes, gene silencing indicates successful delivery to parenchyma, as opposed to delivery to the cells of the reticulo-endothelial system (e.g., Kupffer cells). Furthermore, Factor VII is a secreted protein that can be readily measured in serum, obviating the need to euthanize animals. Silencing at the mRNA level can be readily determined by measuring levels of protein. This is because the protein's short half-life (2-5 hour). Compositions with siRNA directed to […] were Formulated with the lipid, and comparator sample phosphate-buffered saline (PBS). Female C57BL/6 mice (6-8 week old) were used for FVII siRNA knockdown (KD) experiments.
All Formulations were administered intravenously via tail vein injection at a dose of 0.03 and 0.1 mg/kg at a dosing volume of […]. Terminal blood collection was performed via cardiac puncture under 2% isoflurane at 48 hours after Formulation injections. Blood was collected into 0.109 M citrate buffer tube and processed by centrifugation at 1200 G for 10 min. Plasma was collected and Factor VII protein levels were analyzed by chromogenic assay (Biophen FVII, Aniara Corporation). A standard curve was constructed using samples from PBS-injected mice and relative Factor VII expression was determined by comparing treated groups to untreated PBS control.

| SMILES | Factor VII knockdown activity compared with ATX-002 (FIG. 18) |
| --- | --- |
| CCCCCC/C=C\COC(=O)CCCN(CCCC(=O)OC(CCCCCCC)CCCCCCCC)C(=O)SCCN(C)C (stereo not shown) [ATX-0057] | substantially more effective than ATX-002 |

Same assay, conditions: dose 0.03 mg/kg, intravenous, mice, 48 hours

| SMILES | Bioactivity: percentage in vivo Factor VII knockdown |
| --- | --- |
| CCCCCC/C=C\COC(=O)CCCN(CCCC(=O)OC(CCCCCCC)CCCCCCCC)C(=O)SCCN(C)C (stereo not shown) [ATX-0057] | 86 percentage |
| CCCCCC/C=C\COC(=O)CCCN(CCCC(=O)OC(CCCCCCC)CCCCCCC)C(=O)SCCN(C)C [ATX-0081] | 93 percentage |
| CCCCCC/C=C\COC(=O)CCCCCN(CCCC(=O)OC(CCCCCCC)CCCCCCC)C(=O)SCCN(C)C [ATX-0083] | 65 percentage |
| CCCCCC/C=C\COC(=O)CCCCCN(CCCCCC(=O)OC(CCCCCC)CCCCCC)C(=O)SCCN(C)C [ATX-0084] | 68 percentage |
| CCCCCC/C=C\COC(=O)CCCN(CCCC(=O)OC(CCCCCC)CCCCCC)C(=O)SCCN(C)C [ATX-0086] | 13 percentage |
| CCCCCC/C=C\COC(=O)CCCCCCCN(CCCCCCCC(=O)OC(CCCCCC)CCCCCC)C(=O)SCCN(C)C [ATX-0093] | 70 percentage |
| CCCCCC/C=C\COC(=O)CCCCCCCN(CCCCCCCC(=O)OC(CCCCCCCC)CCCCCCCC)C(=O)SCCN(C)C [ATX-0096] | 40 percentage |
| CCCCCC/C=C\COC(=O)CCCCCCCN(CCCCCCCC(=O)OC(CCCCCCC)CCCCCCC)C(=O)SCCN(C)C [ATX-0097] | 71 percentage |
| CCCCCCCC(CCCCCCC)OC(=O)CN(CC(=O)OC(CCCCCCC)CCCCCCC)C(=O)SCCCN(CC)CC [ATX-0134] | 25 percentage |
| CCCCCC(CCCCC)OC(=O)CN(CC(=O)OC(CCCCC)CCCCC)C(=O)SCCCN(C)C [drawing 51] | 0 percentage |
| CCCCCC(CCCCC)OC(=O)CN(CC(=O)OC(CCCCC)CCCCC)C(=O)SCCCN(C)C [drawing 52] | 0 percentage |
| CCCCCC/C=C\COC(=O)CCCN(CCCC(=O)OC(CCCCCCCC)CCCCCCCC)C(=O)SCCN(C)C [drawing 76] | 80 percentage |
| CCCCCC/C=C\COC(=O)CCCCCN(CCC(=O)OC(CCCCCCC)CCCCCCC)C(=O)SCCN(C)C [drawing 82] | 43 percentage |
